Read-outs that look alike come from different tables or passages of the source.
How the values were obtained:
[1] = test system: paternal Ube3a-YFP; assay: Paternal Ube3a-YFP unsilencing, fluorescence immunostaining and high-content imaging in primary cortical neurons (Ube3a^m+/pYFP); assay type: cell-based, mouse; details: for neurons expressing paternal Ube3a-YFP above threshold: 0.3 μM, n = 4 wells, YFP-positive cells / total Hoechst-positive cells
Procedure: We followed the protocols for fluorescent immunostaining and high-content imaging of cortical neurons as previously described. Briefly, 72 h after drug treatment, the cells were fixed with 4% paraformaldehyde at room temperature for 15 min. After rinsing with phosphate-buffered saline (PBS) three times, the cells were permeabilized with 1% Triton-X 100 in PBS, followed by blocking with 5% NGS and 0.1% Triton-X 100 in PBS at room temperature for 30 min. After blocking, the cells were incubated with primary antibody, rabbit anti-GFP (1:1000, Novus Biologicals), at 4 °C overnight. The cells were then briefly rinsed with PBS followed by incubation with secondary antibody, goat anti-rabbit Alexa Fluor 488 (1:200, Thermo Fisher/Invitrogen), at room temperature. One hour after secondary antibody incubation, the cells were rinsed with PBS and fluorescent images were acquired using a BD Pathway 855 bioimager. The acquired images were processed by CellProfiler to count the number of positive cells and measure fluorescent intensity (Additional file 2). To determine the percentage of neurons expressing paternal Ube3a-YFP, we counted the total number of cells (Hoechst) and YFP-positive cells, and the number of YFP-positive cells was divided by the total number of cells. Fluorescence intensity was measured in neurons expressing unsilenced paternal Ube3a-YFP and normalized to vehicle control.

[2] = test system: paternal Ube3a-YFP; assay: Western blot of paternal UBE3A-YFP in cultured neurons from Ube3a^m+/pYFP mice; assay type: cell-based, mouse; details: 0.3 μM, 72 h, n = 3/group
Procedure: (§1) We followed the same procedures of Western blot analysis as previously described. In brief, 72 h after drug treatment, we collected the cultured neurons from 6-well plates and extracted total protein with protein extraction buffer. Bradford assay was performed to measure protein concentration, and 30 μg of total protein was loaded for Bis-polyacrylamide gel electrophoresis (Bio-Rad). Electrophoresed proteins were transferred to nitrocellulose membrane (0.45 μm, Bio-Rad). The membranes were blocked with 5% non-fat milk in TBS-T at room temperature for 30 min followed by overnight 4 °C incubation with primary antibodies (rabbit anti-GFP, 1:1000, Novus Biologicals; rabbit anti-Ube3a, 1:1000, Bethyl Lab; mouse anti-actin; 1:5000, Sigma). The next day, the membranes were rinsed with TBS-T three times and incubated with HPR-conjugated secondary antibodies for 1 h at room temperature (goat anti-rabbit, 1:1000, Vector Lab or goat anti-mouse, 1:1000, Vector Lab). Following secondary antibody incubation, the membranes were rinsed with TBS-T at room temperature for 1 h (4–5 times) and ECL substrates (Bio-Rad) were used to visualize immunostaining using an Amersham Imager 600 (AI600, GE Life Sciences).

[3] = Cytotoxicity test (Cyto Tox-Glo) in cultured cortical neurons; details: mouse, primary cultured cortical neurons from E14.5 embryos
[4] = test system: paternal UBE3A; assay: Western blot of paternal UBE3A in cultured neurons from AS model mice (Ube3a^m−/p+); assay type: cell-based, mouse; details: 0.3 μM, 72 h, vs DMSO, n = 3/group
Procedure: as §1

[5] = test system: Top1; details: cited from earlier work
[6] = parameters: method as in PMID 27169793; details: at the concentrations examined; cited from earlier work
[7] = in vitro; details: mouse
[8] = parameters: method as in earlier work; details: cited from earlier work
[9] = test system: ABCG2; parameters: method as in PMID 17974983; details: cited from earlier work
[10] = test system: MDR1; parameters: method as in PMID 17974983; details: cited from earlier work
[11] = Table S1, nine analogues, unsilencing of paternal UBE3A-YFP, 72 h
[12] = Table S1, nine analogues, unsilencing of paternal UBE3A-YFP, 72 h, 'ambiguous' = limited effective dose range, read-out: EC50
[13] = Mus musculus, Primary cortical neuron, unsilencing of paternal UBE3A-YFP, drug 72 h from DIV 7, n = 4/group, estimated from Fig. 4, read-out: EC50
[14] = maximum response of unsilencing paternal Ube3a-YFP, fluorescence intensity normalized to vehicle control, 72 h, estimated from Fig. 4

| Compound | Emax [1, 11] | EC50 [1, 12] [µM] | neurons expressing paternal Ube3a-YFP above threshold ([1]; 72 h) [%] | EC50 [1, 13] [µM] | Emax [1, 14] | paternal UBE3A-YFP protein level (Western blot, normalized to actin) [2] | CC50 at 72 h [3] [µM] | paternal UBE3A protein level (Western blot, normalized to actin) [4] | also measured |
| --- | --- | --- | --- | --- | --- | --- | --- | --- | --- |
| COc1cc2c3c(n(C[C@H](O)CO)c(=O)c2cc1OC)-c1cc2c(cc1C3=O)OCO2 [DB-IV-50] | 1.39 (±0.07) | 0.121 |  |  |  |  |  |  |  |
| COc1cc2c3c(n(C[C@@H](O)CO)c(=O)c2cc1OC)-c1cc2c(cc1C3=O)OCO2 [DB-IV-58] |  |  | 17.7 ± 3.87 | 0.031 | 1.45 (± 0.12) | led to paternal UBE3A-YFP protein production | 2.01 | high level of paternal UBE3A protein |  |
| O=C1c2ccccc2-c2c1c1ccc([N+](=O)[O-])cc1c(=O)n2CC(O)C(O)C(O)CO (centres unmarked) [DB-V-37] |  |  | 14.1 ± 3.55 | 0.0299 | 1.48 (± 0.08) | led to paternal UBE3A-YFP protein production | 2.02 | high level of paternal UBE3A protein |  |
| COc1cc2c3c(n(CCCn4ccnc4)c(=O)c2cc1OC)-c1cc2c(cc1C3=O)OCO2 [Indimitecan, indimitecan] |  |  | 23.9 ± 1.72 | 0.00747 | 1.47 (± 0.10) | led to paternal UBE3A-YFP protein production | 0.789 | high level of paternal UBE3A protein | inhibition of Top1 enzymatic activity [5]: ~100% |
| COc1cc2c3c(n(CCCN4CCOCC4)c(=O)c2cc1OC)-c1cc2c(cc1C3=O)OCO2 [Indotecan, indotecan] |  |  | 37.1 ± 5.19 | 0.0256 | 1.78 (± 0.13) | led to paternal UBE3A-YFP protein production |  | high level of paternal UBE3A protein | inhibition of Top1 enzymatic activity [5]: ~100%; EC50 ([1]; Mus musculus, Primary cortical neuron, read-out: EC50 to produce Ube3a unsilencing): ~0.026 µM; tolerability in a clinical population [6]: well tolerated; CC50 at 72 h [7]: 2.01 µM; CNS penetration [8]: favorable CNS penetration; substrate for transporter ABCG2 [9]: not a substrate; substrate for transporter MDR1 [10]: not a substrate |
| C=CCn1c2c(c3cc(OC)c(OC)cc3c1=O)C(=O)c1cc3c(cc1-2)OCO3 [MJ-II-66A] | 1.20 (±0.05) | ~0.0268 |  |  |  |  |  |  | range of doses that produce Ube3a-YFP unsilencing before toxicities ([1]; dose-response 1E-10 to 3E-5 M, 72 h): very limited range of doses |
| COc1cc2c3c(n(CCCO)c(=O)c2cc1OC)-c1cc2c(cc1C3=O)OCO2 [MNR-IV-64] | 1.37 (±0.09) | 0.634 |  |  |  |  |  |  |  |
| CC[C@@]1(O)C(=O)OCc2c1cc1n(c2=O)Cc2cc3c(CN(C)C)c(O)ccc3nc2-1 [Topotecan] |  |  | 33.0 ± 2.56 | 0.0304 | 1.51 (± 0.11) | led to paternal UBE3A-YFP protein production |  | high level of paternal UBE3A protein | CC50 at 72 h [7]: 2.3 µM |
